The values that follow come from patent US9958452B2, “Highly fluorogenic protein labelling agents” (UNIVERSITY OF OTTAWA, priority 2015, dated 2018).

Molecules are shown by their SMILES.

Series [1] is described as follows: Selectivity over other thiols, overnight incubation. It counts as biochemical. The conditions noted are these: 25 μM YC23 overnight; 250 μM Cys and Hcy, 1 mM GSH vs 25 μM MBP-dC10α. As for the experimental part: The selectivity of fluorogen YC23 was tested by incubating it overnight in the presence of MBP-dC10α or other intracellular thiols.
Emission spectra and fluorescence intensity measurements were recorded at 37° C. with a Synergy H4 Hybrid Multi-Mode Microplate Reader with excitation and emission monochromators set at 9 nm bandpass. Concentrations of 2.5, 5, 12.5, 20, and 25 μM of MBP-dC10α were reacted with 25 μM YC23. The mixture of 25 μM solution of YC23 and 2.5, 5, 12.5 20, or 25 μM MBP-dC10α in 50 mM HEPES buffer (pH 7.4) with 5% DMSO was incubated at 37° C. in the dark for overnight after which the fluorescence emission spectrum was recorded (λex=480 nm). The emission spectra of YC23 in the same solution without MBP-dC10α were also recorded. The ratio of fluorescence intensity at maximum emission gave the fluorescence enhancement ratio. Selectivity tests were done with same protocol but with different concentrations of thiols. The mixture of 25 μM solution of YC28 or YC29 and 25 μM MBP-dC10α in 50 mM HEPES buffer (pH 7.4) with 5% DMSO was incubated at 37° C. in the dark for overnight after which the fluorescence emission spectrum was recorded. The emission spectra of YC28 or YC29 in the same solution without MBP-dC10α were also recorded. The ratio of fluorescence intensity at maximum emission gave the fluorescence enhancement ratio. λex for YC28 is 540 nm and λex for YC29 is 580 nm. […]

The test system of series [2] is MBP-dC10α. Briefly: Labelling of MBP-dC10α, purified and in bacterial lysate, analysed by SDS-PAGE after heat denaturation. Type of series: biochemical, Escherichia coli. As to the method:
10% SDS-PAGE gels developed by (A) fluorescence (λex=491 nm, λem=508 nm) and (B) Coomassie staining are shown. Lane 1: molecular weight markers. Lanes 2-3: Purified MBP-[…]α, concentrated to 50 μM and (lane 3) labelled with 50 μM YC23, prior to 10-fold dilution and loading. Lanes 4-6: Soluble lysate of bacteria expressing MBP-[…]α, treated with 10, 50, or 100 μM YC23 respectively and 0.5 mM TCEP overnight, prior to loading. The thiol addition reaction of a maleimide group typically results in the formation of robust covalent bonds, which should be stable under conditions in which the labelled protein may itself undergo denaturation. To test this hypothesis, we expressed MBP-[…]α in Escherichia coli and used YC23 to label the test protein in bacterial lysate as well as the purified test protein. These samples were then heated to 95° C. for 15 min, prior to analysis by SDS-PAGE. […] Furthermore, as shown in lanes 4-6, as little as 10 μM of YC23 was sufficient to label the test protein, in the complex biological mixture of cell lysate.

Series [3] has as its system MBP-dC10α. The series is described as follows: Time-dependent fluorescence increase for kinetic studies with MBP-dC10α. It counts as biochemical. As to the method: 4. Time-Dependent Fluorescence Increase for Kinetic Studies.
Protein labelling kinetics were studied by following the time-dependent fluorescence increase at 37° C. using a Synergy H4 Hybrid Multi-Mode Microplate Reader with excitation and emission monochromators set at a 9-nm bandpass. The reaction was prepared in 50 mM HEPES buffer (pH 7.4) with 5% DMSO. Solutions of MBP-dC10α were prepared in a 96-well plate and labelling reagent YC23, YC28 or YC29 in DMSO was added immediately before recording. The final concentrations of YC23, YC28, YC29 and of MBP-dC10α were all 25 μM in 50 mM HEPES buffer (pH 7.4) with 5% DMSO. Samples were excited at 495 nm (YC23), 540 nm (YC28) or 580 nm (YC29) and fluorescence intensity was followed at 525 nm (YC23), 590 nm (YC28) or 630 nm (YC29) as a function of time.

Series [4] deals with MBP-dC10α. Briefly: Fluorescence enhancement of fluorogen after labelling of test protein MBP-dC10α. To be noted: for fluorescence enhancement after reaction with MBP-dC10α: 25 μM fluorogen + 25 μM MBP-dC10α, overnight at 37° C., ratio of intensity at emission maximum; for background (latent) fluorescence of the unreacted fluorogen: 25 μM fluorogen without MBP-dC10α, 50 mM HEPES pH 7.4, 5% DMSO. Type of series: biochemical. As to the method: 3. Determination of Fluorescence Properties of Fluorogens, Fluorescence Changes after Labelling of Target Protein, Selectivity Over Other Thiols, and Fluorescence Enhancement Ratios.
(§1) Emission spectra and fluorescence intensity measurements were recorded at 37° C. with a Synergy H4 Hybrid Multi-Mode Microplate Reader with excitation and emission monochromators set at 9 nm bandpass. Concentrations of 2.5, 5, 12.5, 20, and 25 μM of MBP-dC10α were reacted with 25 μM YC23. The mixture of 25 μM solution of YC23 and 2.5, 5, 12.5 20, or 25 μM MBP-dC10α in 50 mM HEPES buffer (pH 7.4) with 5% DMSO was incubated at 37° C. in the dark for overnight after which the fluorescence emission spectrum was recorded (λex=480 nm). The emission spectra of YC23 in the same solution without MBP-dC10α were also recorded. The ratio of fluorescence intensity at maximum emission gave the fluorescence enhancement ratio. Selectivity tests were done with same protocol but with different concentrations of thiols. The mixture of 25 μM solution of YC28 or YC29 and 25 μM MBP-dC10α in 50 mM HEPES buffer (pH 7.4) with 5% DMSO was incubated at 37° C. in the dark for overnight after which the fluorescence emission spectrum was recorded. The emission spectra of YC28 or YC29 in the same solution without MBP-dC10α were also recorded. The ratio of fluorescence intensity at maximum emission gave the fluorescence enhancement ratio. λex for YC28 is 540 nm and λex for YC29 is 580 nm. Excitation and emission spectra were obtained for 25 μM of MBP-dC10α labelled with one equivalent of YC23 (FIG. 10), YC28 (FIG. 11a) or YC29 (FIG. 11b).

For the next series, the system named is HEK293T cells. The series is described as follows: MTT assay cytotoxicity. It counts as cell-based, Human. To be noted: up to 100 μM, 20 hours. As for the experimental part: 3-(4,5-Dimethylthiazol-2-yl)-2,5-diphenyl tetrazolium bromide (MTT) is a yellow tetrazolium salt and can be reduced to formazan crystals, which are insoluble in aqueous solutions, by active mitochondria in living cells. The resulting intracellular purple formazan can be dissolved in Triton X100, and therefore quantified by measuring absorption of the solution.
Cells were seeded in a 96-well plate and incubated with 100 μL of culture medium with different amounts of the fluorogen YCx for 20 h. No fluorogen was added to the positive control and no cells were plated in the negative control. Portions of 25 μL of MTT solution (5 mg in 1 mL of Hanks' balanced salt solution) were added to the wells and the cells were further incubated at 37° C. for 4 h. Solubilization solutions (100 μL) were then added and incubated in 96-well plates at room temperature in the dark overnight. The absorption of each well was measured using a plate reader at a wavelength of 570 nm with 690 nm as a reference. Cell viability was calculated according to the following equation: Cell viability=(Awith fluorogen−Anegative control)/(Apositive control−Anegative control)×100%
On the technique in general: Tetrazolium dyes change colour on reduction, which living cells bring about.

Series [5] concerns histone-H2B-dC10α in HEK293T cells. The series is described as follows: Cellular labelling with confocal fluorescence microscopy. It counts as cell-based, Human. To be noted: for fluorescence in cells transfected with histone-H2B-dC10α / fluorescence in negative-control cells (pcDNA / mock DNA): HEK293T, 10 μM fluorogen; for fluorescence in cells transfected with histone-H2B-dC10α: 30 min (YC23) or 45 min (YC29); for fluorescence in negative-control cells (pcDNA / mock DNA): same conditions. As to the method:
HEK 293T cells were plated into 60-mm dishes and grown in MEM supplemented with 10% FBS, 100 units/mL of penicillin and 100 μg/mL of streptomycin for 16 h before transfection. Cells were transiently transfected with histone H2B-dC10α or pcDNA3.1 (mock) using lipofectamine 2000 following the manufacturer's instructions. […] Cells were observed and imaged on a Nikon confocal microscope with a 25× objective. Images were taken and analyzed with NIS-Elements software.

The subject of series [6] is MBP-dC10α. Briefly: Excitation and emission spectra of fluorogen-labelled MBP-dC10α. It counts as physicochemical. The conditions noted are these: 25 μM MBP-dC10α labelled with one equivalent of fluorogen. As for the experimental part: as §1
A short description of series [7]: Time-dependent fluorescence increase with excess glutathione. It counts as biochemical.

Regarding `COC1=CC(=O)N(c2ccc(C3=C4C(C)=CC(C)=[N+]4[B-](F)(F)n4c(C)cc(C)c43)c(N3C(=O)C=C(OC)C3=O)c2)C1=O` [YC23, 10-(2,4-Bis(3-methoxy-2,5-dioxo-2,5-dihydro-1H-pyrrol-1-yl)phenyl)-5,5-difluoro-1,3,7,9-tetramethyl-5H-dipyrrolo[1,2-c:2′,1′-f][1,3,2]diazaborinin-4-ium-5-uide], in series [1], the “fluorescence after incubation with other thiols relative to MBP-dC10α” value is less than 10%. Besides, the “fluorescence of labelled purified test protein under denaturing conditions” value in the series with MBP-dC10α [2] (95° C. for 15 min, then SDS-PAGE) was “maintained its fluorescence”. The “concentration sufficient to label the test protein in cell lysate” value in the series on MBP-dC10α [2] (soluble bacterial lysate, 0.5 mM TCEP, overnight) was no more than 10 µM. In addition, the “time required to approach maximum fluorescence” value with MBP-dC10α [3] (25 μM fluorogen + 25 μM MBP-dC10α, 37° C.) is reported as “more than 4 hours”. Further, the “fluorescence increase after 15 min” value with MBP-dC10α [3] (25 μM fluorogen + 25 μM MBP-dC10α, 37° C., 15 min) is listed as 10 fold. For the same molecule, the “dependence of fluorescence increase on MBP-dC10α concentration” value in the series with MBP-dC10α [4] (25 μM YC23, 2.5-25 μM MBP-dC10α) was “concentration-dependent”. In addition, in the series on MBP-dC10α [4], the “fluorescence enhancement after reaction with MBP-dC10α” value (from here on “fluorescence enhancement”) is “ca. 800 fold” and the “background (latent) fluorescence of the unreacted fluorogen” value (“background (latent) fluorescence” for short) was “negligible background fluorescence”. Further, the “effect on cell viability” value in the series on HEK293T cells is “negligible effect on cell viability”. In series [5], the “fluorescence in cells transfected with histone-H2B-dC10α” value is “strongly green fluorescent” and the “fluorescence in negative-control cells (pcDNA / mock DNA)” value is “negligible fluorescence”. In the series with MBP-dC10α [6], the “emission maximum of labelled MBP-dC10α” value was found to be 525 nm and the “excitation maximum of labelled MBP-dC10α” value is reported as 510 nm.

For the molecule `COC(=O)CSC1=[N+]2C(=C(c3ccccc3)c3ccc(Nc4cc(N5C(=O)C=C(OC)C5=O)cc(N5C(=O)C=C(OC)C5=O)c4)n3[B-]2(F)F)C=C1` [YC28, 7-((3,5-bis(3-methoxy-2,5-dioxo-2,5-dihydro-1H-pyrrol-1-yl)phenyl)amino)-5,5-difluoro-3-((2-methoxy-2-oxoethyl)thio)-10-phenyl-5H-dipyrrolo[1,2-c:2′,1′-f][1,3,2]diazaborinin-4-ium-5-uide], in the series with MBP-dC10α [4], the “fluorescence enhancement” value was determined as 579 fold and the “background (latent) fluorescence” value was “effectively quenched”. In addition, in series [7] (25 μM MBP vs 5 mM GSH), the “kinetic selectivity for MBP-dC10α relative to GSH” value was “acceptable but not excellent”. The “emission maximum of labelled MBP-dC10α” value in the series on MBP-dC10α [6] came to 592 nm.

`COC1=CC(=O)N(c2cc(Nc3ccc4n3[B-](F)(F)[N+]3=C(N(C)c5ccccc5)C=CC3=C4c3ccccc3)cc(N3C(=O)C=C(OC)C3=O)c2)C1=O` [YC29, 7-((3,5-bis(3-methoxy-2,5-dioxo-2,5-dihydro-1H-pyrrol-1-yl)phenyl)amino)-5,5-difluoro-3-(methyl(phenyl)amino)-10-phenyl-5H-dipyrrolo[1,2-c:2′,1′-f][1,3,2]diazaborinin-4-ium-5-uide]: the “reaction with MBP-dC10α test protein (time-dependent fluorescence)” value with MBP-dC10α [3] (25 μM fluorogen, 25 μM MBP-dC10α) is “reacted readily”. Moreover, in the series with MBP-dC10α [4], the “fluorescence enhancement” value was 308 fold and the “background (latent) fluorescence” value is given as “efficiently quenched”. For the same molecule, the “reaction with GSH (time-dependent fluorescence)” value in series [7] (5 mM GSH) is “did not show any detectable reaction”. Moreover, in series [7] (in presence of GSH vs MBP-dC10α), the “stability and selectivity of the fluorogen” value is “excellent stability and selectivity”. In addition, in series [5] (HEK293T expressing histone H2B-dC10α, 10 μM, 45 min), the “localisation of fluorescence in transfected cells” value is “localized in the nucleus”. In series [5], the “fluorescence in cells transfected with histone-H2B-dC10α” value is given as “Intense red fluorescence” and the “fluorescence in negative-control cells (pcDNA / mock DNA)” value is recorded as “no red fluorescence was detected”. In addition, in the series on MBP-dC10α [6], the “emission maximum of labelled MBP-dC10α” value came to 630 nm.
